Experimental findings from US10112943B2, “Substituted imidazoles as gamma secretase modulators” (Janssen Pharmaceutica NV, priority 2012, dated 2018) are described below.

One test deals with T1, γ-secretase (Homo sapiens, UniProt P49768).
T1 construct: endogenous in cells; host or cells: SKNBE2 human neuroblastoma cells carrying hAPP 695 wild type
As to the kind of experiment: Screening for γ-secretase-modulating activity: Aβ42 in cell supernatant (Alphalisa sandwich immuno-assay). The format is cell-based. The note with it: SKNBE2 human neuroblastoma cells carrying hAPP 695-wild type, overnight incubation. On the procedure:
A) Screening of the Compounds of the Invention for γ-Secretase-Modulating Activity
Screening was carried out using SKNBE2 human neuroblastoma cells carrying the hAPP 695-wild type, grown in Dulbecco's Modified Eagle's Medium/Nutrient mixture F-12 (DMEM/NUT-mix F-12) (HAM) provided by Invitrogen (cat no. 10371-029) containing 5% Serum/Fe supplemented with 1% non-essential amino acids, 1-glutamine 2 mM, Hepes 15 mM, penicillin 50 U/ml (units/ml) and streptomycin 50 μg/ml. Cells were grown to near confluency.
The screening was performed using a modification of the assay as described in Citron et al (1997) Nature Medicine 3: 67. Briefly, cells were plated in a 384-well plate at 10^4 cells/well in Ultraculture (Lonza, BE12-725F) supplemented with 1% glutamine (Invitrogen, 25030-024), 1% non-essential amino acid (NEAA), penicillin 50 U/ml en streptomycin 50 μg/ml in the presence of test compound at different test concentrations. The cell/compound mixture was incubated overnight at 37° C., 5% CO2. The next day the media were assayed by two sandwich immuno-assays, for Aβ42 and Aβtotal.
Aβtotal and Aβ42 concentrations were quantified in the cell supernatant using the Aphalisa technology (Perkin Elmer). Alphalisa is a sandwich assay using biotinylated antibody attached to streptavidin coated donorbeads and antibody conjugated to acceptor beads. In the presence of antigen, the beads come into close proximity. The excitation of the donor beads provokes the release of singlet oxygen molecules that trigger a cascade of energy transfer in the acceptor beads, resulting in light emission. To quantify the amount of Aβ42 in the cell supernatant, monoclonal antibody specific to the C-terminus of Aβ42 (JRF/cAβ42/26) was coupled to the receptor beads and biotinylated antibody specific to the N-terminus of Aβ (JRF/AβN/25) was used to react with the donor beads. To quantify the amount of Aβtotal in the cell supernatant, monoclonal antibody specific to the N-terminus of Aβ (JRF/AβN/25) was coupled to the receptor beads and biotinylated antibody specific to the mid region of Aβ (biotinylated 4G8) was used to react with the donor beads.
To obtain the values reported in Table 3, the data are calculated as percentage of the maximum amount of amyloid Beta 42 measured in the absence of the test compound.
The sigmoidal dose response curves were analyzed using non-linear regression analysis with percentage of the control plotted against the log concentration of the compound. A 4-parameter equation was used to determine the IC50.

For the next test, the system named is Aβ38. As to the kind of experiment: In vivo efficacy: brain levels of soluble Aβ38 in non-transgenic rodents (MSD electrochemiluminescence). Set-up: species or system mouse. Conditions: dose 30 mg/kg oral dosing, soluble fraction, untreated animals (Ctrl) set at 100, typical protocol 4 h after dose. The source says:
To determine whether acute administration of an Aβ38 increasing agents would increase Aβ38 levels in vivo, non-transgenic rodents, e.g. mice or rats were used. Animals treated with the Aβ38 increasing agents were examined and compared to those untreated or treated with vehicle and brain levels of soluble Aβ42, Aβ40, Aβ38, and Aβ37 were quantitated by MSD electrochemiluminescence detection technology. Treatment periods varied from hours (h) to days and were adjusted based on the results of the Aβ38 increase once a time course of onset of effect could be established.
A typical protocol for measuring Aβ38 increase in vivo is shown but it is only one of many variations that could be used to optimize the levels of detectable Aβ. […] After 4 h, the animals were sacrificed and Aβ38 levels were analysed.
Blood was collected by decapitation and exsanguinations in EDTA-treated collection tubes. […] The left hemisphere was stored at −18° C. for quantitative analysis of test compound levels. […]
Mouse brains from non-transgenic animals were resuspended in 8 volumes of 0.4% DEA (diethylamine)/50 mM NaCl containing protease inhibitors (Roche-11873580001 or 04693159001) per gram of tissue, e.g. for 0.158 g brain, add 1.264 ml of 0.4% DEA. […] Nine parts of supernatant were neutralized with 1 part 0.5 M Tris-HCl pH 6.8 and used to quantify Aβ. […]

Turning to `Cc1cn(-c2ccc3n(c2=O)C[C@@H]2CC[C@@H](Cc4cc(C(F)(F)F)cc(C(F)(F)F)c4)N2C3=O)cn1` (single isomer, unassigned) [Compound 4, 3-[[3,5-bis(trifluoromethyl)phenyl]methyl]-2,3,11,11a-tetrahydro-8-(4-methyl-1H-imidazol-1-yl)-1H-pyrido[1,2-a]pyrrolo[1,2-d]pyrazine-5,9-dione ((3S, 11aS) or (3R, 11aR))], the IC50 at γ-secretase was found to be 50 nM. Further, the “Aβ38 (% vs Ctrl) _Mean” value in the test with Aβ38 is reported as 136 % vs Ctrl.

The term IC50 denotes the point on the concentration scale where inhibition reaches its midpoint. A low value points to inhibition by little substance.
